Reference: EPA's ToxValDB 9.5

Legend:
[1] = test system: Rattus norvegicus; settings: short-term, duration: 28 days, oral, gavage, M, Sprague-Dawley
[2] = test system: Rattus norvegicus; settings: oral

## O=C(O)C(F)(F)C(F)(F)C(F)(F)C(F)(F)C(F)(F)C(F)(F)C(F)(F)F [Perfluorooctanoic acid]
[1]; Clinical chemistry_Creatinine kinase
  LOEL: 2.5 mg/kg-day
[1]; Clinical chemistry_Direct bilirubin
  LOEL: 10 mg/kg-day
[1]; Clinical chemistry_Free thyroxine
  LOEL: 0.625 mg/kg-day
[1]; Clinical chemistry_Globulin
  LOEL: 0.625 mg/kg-day
[1]; Clinical chemistry_Sorbitol dehydrogenase
  NOEL: 10 mg/kg-day
[1]; Clinical chemistry_Testosterone
  NOEL: 10 mg/kg-day
[1]; Clinical chemistry_Thyroid stimulating hormone
  LOEL: 5 mg/kg-day
[1]; Clinical chemistry_Total bile acids
  LOEL: 5 mg/kg-day
[1]; Clinical chemistry_Total protein
  LOEL: 0.625 mg/kg-day
[1]; Clinical chemistry_Total thyroxine
  LOEL: 0.625 mg/kg-day
[1]; Clinical chemistry_Total triiodothyronine
  LOEL: 0.625 mg/kg-day
[1]; Clinical chemistry_Triglycerides
  LOEL: 0.625 mg/kg-day
[1]; Gene expression_Acox1
  LOEL: 0.625 mg/kg-day
[1]; Gene expression_Acyl-CoA oxidase
  LOEL: 0.625 mg/kg-day
[1]; Gene expression_Cyp2b1
  LOEL: 0.625 mg/kg-day
[1]; Gene expression_Cyp2b2
  LOEL: 0.625 mg/kg-day
[1]; Gene expression_Cyp4a1
  LOEL: 0.625 mg/kg-day
[1]; Hematology_Erythrocytes
  LOEL: 1.25 mg/kg-day
[1]; Hematology_Hematocrit
  LOEL: 1.25 mg/kg-day
[1]; Hematology_Hemoglobin
  LOEL: 1.25 mg/kg-day
[1]; Hematology_Mean corpuscular hemoglobin concentration
  NOEL: 10 mg/kg-day
[1]; Hematology_Mean corpuscular volume
  LOEL: 10 mg/kg-day
[1]; Hematology_Platelets
  NOEL: 10 mg/kg-day
[1]; Hematology_Reticulocytes
  LOEL: 0.625 mg/kg-day
[1]; Nonneoplastic effects_Bone marrow - Hypocellularity
  LOEL: 10 mg/kg-day
[1]; Nonneoplastic effects_Epididymis - Duct, exfoliated germ cell
  NOEL: 10 mg/kg-day
[1]; Nonneoplastic effects_Epididymis - Epithelium, apoptosis
  NOEL: 10 mg/kg-day
[1]; Nonneoplastic effects_Epididymis - Hypospermia
  NOEL: 10 mg/kg-day
[1]; Nonneoplastic effects_Forestomach - Epithelium, hyperplasia
  NOEL: 10 mg/kg-day
[1]; Nonneoplastic effects_Forestomach - Inflammation, chronic active
  NOEL: 10 mg/kg-day
[1]; Nonneoplastic effects_Kidney - Nephropathy, chronic progressive
  NOEL: 10 mg/kg-day
[1]; Nonneoplastic effects_Liver - Hepatocyte, Necrosis
  NOEL: 10 mg/kg-day
[1]; Nonneoplastic effects_Liver - Hepatocyte, cytoplasmic alteration
  LOEL: 0.625 mg/kg-day
[1]; Nonneoplastic effects_Liver - Hepatocyte, hypertrophy
  LOEL: 1.25 mg/kg-day
[1]; Nonneoplastic effects_Liver - Hepatocyte, vacuolization cytoplasmic
  NOEL: 10 mg/kg-day
[1]; Nonneoplastic effects_Lymph nodes - Mandibular, atrophy
  NOEL: 10 mg/kg-day
[1]; Nonneoplastic effects_Lymph nodes - Mesenteric, atrophy
  NOEL: 10 mg/kg-day
[1]; Nonneoplastic effects_Nose - Olfactory epithelium, degeneration
  NOEL: 10 mg/kg-day
[1]; Nonneoplastic effects_Nose - Olfactory epithelium, hyperplasia
  NOEL: 10 mg/kg-day
[1]; Nonneoplastic effects_Nose - Olfactory epithelium, inflammation, suppurative
  NOEL: 10 mg/kg-day
[1]; Nonneoplastic effects_Nose - Respiratory epithelium, hyperplasia
  LOEL: 0.625 mg/kg-day
[1]; Nonneoplastic effects_Nose - Respiratory epithelium, inflammation, chronic active
  LOEL: 0.625 mg/kg-day
[1]; Nonneoplastic effects_Spleen - Atrophy
  NOEL: 10 mg/kg-day
[1]; Nonneoplastic effects_Spleen - Extramedullary hematopoiesis, increased
  NOEL: 10 mg/kg-day
[1]; Nonneoplastic effects_Testes - Germinal epithelium, degeneration
  NOEL: 10 mg/kg-day
[1]; Nonneoplastic effects_Testes - Interstitial cell, atrophy
  NOEL: 10 mg/kg-day
[1]; Nonneoplastic effects_Testes - Seminiferous tubule, spermatid retention
  NOEL: 10 mg/kg-day
[1]; Nonneoplastic effects_Thymus - Atrophy
  NOEL: 10 mg/kg-day
[1]; Nonneoplastic effects_Thymus - Lymphocyte, apoptosis
  NOEL: 10 mg/kg-day
[1]; Nonneoplastic effects_Thyroid gland - Follicular cell hypertrophy
  LOEL: 10 mg/kg-day
[1]; Organ weights_Liver - Absolute
  LOEL: 0.625 mg/kg-day
[1]; Organ weights_Liver - Relative
  LOEL: 0.625 mg/kg-day
[1]; Organ weights_R. adrenal gland - Absolute
  NOEL: 10 mg/kg-day
[1]; Organ weights_R. adrenal gland - Relative
  NOEL: 10 mg/kg-day
[1]; Organ weights_R. kidney - Absolute
  LOEL: 1.25 mg/kg-day
[1]; Organ weights_R. kidney - Relative
  LOEL: 0.625 mg/kg-day
[1]; Organ weights_R. testis - Absolute
  NOEL: 10 mg/kg-day
[1]; Organ weights_Spleen - Absolute
  LOEL: 2.5 mg/kg-day
[1]; Organ weights_Spleen - Relative
  NOEL: 10 mg/kg-day
[1]; Organ weights_Thymus - Absolute
  LOEL: 10 mg/kg-day
[1]; Organ weights_Thymus - Relative
  NOEL: 10 mg/kg-day
[1]; Organ weights_Thyroid gland - Absolute
  LOEL: 2.5 mg/kg-day
[1]; Organ weights_Thyroid gland - Relative
  LOEL: 1.25 mg/kg-day
[1]; Reproductive toxicity_Altered sperm parameters
  LOEL: 10 mg/kg-day
[1]; Survival rates
  NOEL: 10 mg/kg-day
[1]; body weight
  LOEL: 5 mg/kg-day
[2]; acute, duration: 1 days, M, Wistar, Neurological: No alteration in performance on novel object recognition test
  NOAEL: 50 mg/kg-day
[2]; developmental, duration: 21 days, F, Wistar, Developmental: 17-18% reduced motor coordination and increased locomotor activity in pups on PNDs 34-35
  LOAEL: 1.6 mg/kg-day
[2]; short-term, duration: 1 weeks, M, Wistar
  NOAEL: 38 mg/kg-day
[2]; short-term, duration: 1 weeks, M, Wistar, Hepatic: Significant increase in absolute and relative liver weight at ?4.7 mg/kg/day
  NOAEL: 9.5 mg/kg-day
[2]; short-term, duration: 14 days, M, Sprague-Dawley, Hepatic: 45% increase in relative liver weight
  NOAEL: 20 mg/kg-day
[2]; short-term, duration: 28 days, M, Sprague-Dawley, Neurological: Cachexia and lethargy
  LOAEL: 5 mg/kg-day
